Measurements published in paper PMC11187126, “Structure and dynamics of the pyroglutamylated RF-amide peptide QRFP receptor GPR103” (Nature Communications, 2024).
Where two headings read alike, the source gives them in different places. No end group written: not given here.

Biological target: T1, GPR103 Q318^7.39A (Homo sapiens, UniProt Q96P65, Q318A)
T1 construct: we used human full-length QRFPR-encoding plasmids; expressed in transfected cells; host or cells: HEK293 cells (HEK293A in the flow cytometry section), pCAGGS vector
T1 sequence (Q96P65 1-431 Q318A): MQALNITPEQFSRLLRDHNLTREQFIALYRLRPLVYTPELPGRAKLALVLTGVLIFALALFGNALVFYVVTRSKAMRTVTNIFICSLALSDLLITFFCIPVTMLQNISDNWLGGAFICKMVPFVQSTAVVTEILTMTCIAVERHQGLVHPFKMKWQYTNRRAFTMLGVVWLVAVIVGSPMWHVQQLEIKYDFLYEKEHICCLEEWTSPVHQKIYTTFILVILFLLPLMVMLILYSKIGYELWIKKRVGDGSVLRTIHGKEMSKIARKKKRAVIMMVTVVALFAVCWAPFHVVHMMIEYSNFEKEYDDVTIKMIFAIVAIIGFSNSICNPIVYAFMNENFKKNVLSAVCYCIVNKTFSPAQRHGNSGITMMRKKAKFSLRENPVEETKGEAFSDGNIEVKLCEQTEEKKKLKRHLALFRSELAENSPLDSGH
Assay: TGFα shedding assay; Exp. level WT (1:50)
Assay type: cell-based
Procedure: For the TGFα shedding assay and the flow cytometry analysis, we used human full-length QRFPR-encoding plasmids. Specifically, GPR103 was N-terminally modified with an HA signal sequence followed by a FLAG epitope and then a flexible linker ([…]; the FLAG epitope is underlined) and inserted into the pCAGGS vector. Plasmid encoding GPR103 mutants were generated using Quickchange Site-Directed Mutagensis kit (Agilent).
The TGFα shedding assay was performed as described previously with minor modifications. Plasmid transfection was performed in a 6-well plate with a mixture of 500 ng (per well in a 6-well plate) AP-TGFα-encoding plasmid and 200 ng GPR103-encoding plasmid. After 1-day culture, the transfected cells were harvested by trypsinization, pelleted by centrifugation at 190 × g for 5 min, and washed once with 5 mM HEPES (pH 7.4)-containing Hank’s Balanced Salt Solution (HBSS). After centrifugation, the cells were resuspended in 8 mL of the HEPES-containing HBSS. The cell suspension was seeded in a 96-well culture plate (cell plate) at a volume of 90 μL (per well hereafter) and incubated in a 37 °C incubator with 5% CO2 for 30 min. […] After spinning the cell plates at 190 × g for 2 min, 80 μL of conditioned media was transferred to an empty 96-well plate (conditioned media (CM) plate). Then, 80 μL of AP reaction solution (10 mM p-nitrophenylphosphate (p-NPP), 120 mM Tris-HCl (pH 9.5), 40 mM NaCl, and 10 mM MgCl2) was dispensed into the cell plates and the CM plates. Absorbance at 405 nm of the plates was measured using a microplate reader (SpectraMax 340 PC384, Molecular Devices) before and after 1-h incubation at room temperature. Ligand-induced AP-TGFα release was calculated by subtracting spontaneous AP-TGFα release signal from ligand-induced AP-TGFα release signal. The AP-TGFα release signals were fitted to a four-parameter sigmoidal concentration–response curve, using the Prism 10 software (GraphPad Prism). For each replicate experiment, the pEC50 parameter (negative logarithmic values of EC50 values) of the individual GPR103 mutants were normalized to that of the wild-type GPR103 performed in parallel, and resulting ∆pEC50 values were used to denote ligand response activity of the mutants. […]
Exp. le vel: WT (1:5 0)Exp. le vel: WT (1:5 0)Exp. le vel: WT (1:5 0)Exp. le vel: WT (1:2 0)Exp. le vel: WT (1:2 0)Exp. le vel: WT (1:1 0) […]
L1 4N - t e r mA F2 5N - t e r mA I 2 6N - t e r mA Y 2 9N - t e r mA C 9 82 .5 7A T10 22 .6 1A Exp . l eve l: WT (1 :5)Exp . l evel : >WT (1 :1)Exp. le vel: WT (1:2 0)Exp. le vel: WT (1:2 0)Exp. le vel: WT (1:5 0)Exp . l eve l: WT (1 :1) […]
Exp. le vel: WT (1:1 0)Exp. le vel: WT (1:2 0) C 1 1 83 .2 5AExp. le vel: WT (1:5 0)Exp. le vel: WT (1:5 0)Exp. le vel: WT (1:2 0)Exp . l eve l: WT (1 :5) […]
Exp. le vel: WT (1:5 0)Exp. le vel: WT (1:1 0)Exp. le vel: WT (1:5 0) E203ECL2AExp . l evel : >WT (1 :1)Exp. le vel: WT (1:5 0)Exp. le vel: WT (1:5 0) […]
Exp . l eve l: WT (1 :1) F28Exp. le vel: WT (1:5 0) C 2 8 56 .4 7AExp. le vel: WT (1:2 0) WExp. le vel: WT (1:2 0) F28Exp. le vel: WT (1:5 0)Exp . l evel : >WT (1 :1) […]
Exp. le vel: WT (1:5 0)Exp. le vel: WT (1:5 0) C 3 2 77 .4 8AExp . l eve l: WT (1 :5)Exp . l evel : >WT (1 :1)Exp . l evel : >WT (1 :1) […]
Suppl eme nt ary Figure 1 | Mutational analysis of GPR103. […]
mutants. Data are presented as mean values ± SEM, normally n=3-5; dots), each performed in triplicate. b-d Cell-surface expression (b) and QRFP26-in-duced activation of GPR103 (c, d) were analyzed by the flow cytometry and the TGFα shedding assay, respectively. From the concentration–response curves (a), Emax (c) and ΔpEC50 (d) values relative to the wild type were calculated. Colors in the mutant bars indicate an expression level matching to that of titrated wild type. Statistical analyses were performed using the ordinary one-way ANOVA followed by Dunnett tests with the expression-matched […]

TSGPLGNLAEELNGYSRKKGGFSFRF-NH2 [QRFP26]
Emax (Exp. #1): 14.85 % WT
Emax (Exp. #2): 10.08 % WT
Emax (Exp. #3): 10.26 % WT
Emax (mean, read-out: Emax): 11.7%
EC50 (n = 3): 85.1 nM
Emax (n = 3, read-out: Emax): 11.7 ± 1.3%
